Source: ChEMBL document CHEMBL1132848, “1H-pyrazole-1-carboxamidines: new inhibitors of nitric oxide synthase” (Bioorg Med Chem Lett, 2000)
pKi: −log10 of the molar value.

What was measured:
[1] = Selectivity for neuronal(nNOS) and induced Nitric Oxide Synthase(iNOS); design: reference not given here
[2] = biological target: T1, Nitric oxide synthase, inducible (Mus musculus, UniProt P29477); test: Inhibition against induced Nitric Oxide Synthase(iNOS)
T1 sequence (P29477 whole entry): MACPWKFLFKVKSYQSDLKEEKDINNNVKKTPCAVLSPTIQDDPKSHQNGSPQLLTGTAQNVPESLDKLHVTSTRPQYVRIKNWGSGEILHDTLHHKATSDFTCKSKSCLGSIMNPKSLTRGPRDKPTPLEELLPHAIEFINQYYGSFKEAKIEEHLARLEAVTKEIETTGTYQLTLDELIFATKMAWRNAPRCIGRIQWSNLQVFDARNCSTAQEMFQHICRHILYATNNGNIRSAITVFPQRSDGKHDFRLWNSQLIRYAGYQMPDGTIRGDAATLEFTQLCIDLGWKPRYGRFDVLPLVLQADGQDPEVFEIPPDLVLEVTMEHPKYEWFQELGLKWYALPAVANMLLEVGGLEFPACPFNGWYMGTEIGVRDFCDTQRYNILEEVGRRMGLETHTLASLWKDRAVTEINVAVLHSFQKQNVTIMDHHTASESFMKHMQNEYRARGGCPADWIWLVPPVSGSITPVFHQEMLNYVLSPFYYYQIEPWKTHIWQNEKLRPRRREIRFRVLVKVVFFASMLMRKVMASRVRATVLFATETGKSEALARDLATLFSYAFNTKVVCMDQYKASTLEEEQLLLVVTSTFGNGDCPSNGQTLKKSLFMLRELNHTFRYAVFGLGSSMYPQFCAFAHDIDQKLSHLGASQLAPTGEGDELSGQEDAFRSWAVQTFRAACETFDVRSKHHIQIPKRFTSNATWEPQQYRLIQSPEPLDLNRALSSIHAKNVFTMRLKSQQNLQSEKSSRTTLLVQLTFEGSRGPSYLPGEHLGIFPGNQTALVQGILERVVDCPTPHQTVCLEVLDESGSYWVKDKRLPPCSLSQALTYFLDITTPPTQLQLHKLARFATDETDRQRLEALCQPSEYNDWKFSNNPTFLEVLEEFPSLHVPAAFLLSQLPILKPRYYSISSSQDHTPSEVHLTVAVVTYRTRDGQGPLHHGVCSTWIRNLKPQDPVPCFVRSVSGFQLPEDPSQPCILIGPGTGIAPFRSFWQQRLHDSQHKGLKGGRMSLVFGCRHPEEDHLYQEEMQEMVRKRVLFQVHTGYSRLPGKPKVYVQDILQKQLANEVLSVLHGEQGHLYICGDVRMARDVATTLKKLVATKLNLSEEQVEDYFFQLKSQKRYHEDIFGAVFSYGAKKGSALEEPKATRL

Nitric oxide synthase 1 [3] = biological target: T2, Nitric oxide synthase 1 (Rattus norvegicus, UniProt P29476); test: Inhibition against neuronal Nitric Oxide Synthase(nNOS)
T2 sequence (P29476 whole entry): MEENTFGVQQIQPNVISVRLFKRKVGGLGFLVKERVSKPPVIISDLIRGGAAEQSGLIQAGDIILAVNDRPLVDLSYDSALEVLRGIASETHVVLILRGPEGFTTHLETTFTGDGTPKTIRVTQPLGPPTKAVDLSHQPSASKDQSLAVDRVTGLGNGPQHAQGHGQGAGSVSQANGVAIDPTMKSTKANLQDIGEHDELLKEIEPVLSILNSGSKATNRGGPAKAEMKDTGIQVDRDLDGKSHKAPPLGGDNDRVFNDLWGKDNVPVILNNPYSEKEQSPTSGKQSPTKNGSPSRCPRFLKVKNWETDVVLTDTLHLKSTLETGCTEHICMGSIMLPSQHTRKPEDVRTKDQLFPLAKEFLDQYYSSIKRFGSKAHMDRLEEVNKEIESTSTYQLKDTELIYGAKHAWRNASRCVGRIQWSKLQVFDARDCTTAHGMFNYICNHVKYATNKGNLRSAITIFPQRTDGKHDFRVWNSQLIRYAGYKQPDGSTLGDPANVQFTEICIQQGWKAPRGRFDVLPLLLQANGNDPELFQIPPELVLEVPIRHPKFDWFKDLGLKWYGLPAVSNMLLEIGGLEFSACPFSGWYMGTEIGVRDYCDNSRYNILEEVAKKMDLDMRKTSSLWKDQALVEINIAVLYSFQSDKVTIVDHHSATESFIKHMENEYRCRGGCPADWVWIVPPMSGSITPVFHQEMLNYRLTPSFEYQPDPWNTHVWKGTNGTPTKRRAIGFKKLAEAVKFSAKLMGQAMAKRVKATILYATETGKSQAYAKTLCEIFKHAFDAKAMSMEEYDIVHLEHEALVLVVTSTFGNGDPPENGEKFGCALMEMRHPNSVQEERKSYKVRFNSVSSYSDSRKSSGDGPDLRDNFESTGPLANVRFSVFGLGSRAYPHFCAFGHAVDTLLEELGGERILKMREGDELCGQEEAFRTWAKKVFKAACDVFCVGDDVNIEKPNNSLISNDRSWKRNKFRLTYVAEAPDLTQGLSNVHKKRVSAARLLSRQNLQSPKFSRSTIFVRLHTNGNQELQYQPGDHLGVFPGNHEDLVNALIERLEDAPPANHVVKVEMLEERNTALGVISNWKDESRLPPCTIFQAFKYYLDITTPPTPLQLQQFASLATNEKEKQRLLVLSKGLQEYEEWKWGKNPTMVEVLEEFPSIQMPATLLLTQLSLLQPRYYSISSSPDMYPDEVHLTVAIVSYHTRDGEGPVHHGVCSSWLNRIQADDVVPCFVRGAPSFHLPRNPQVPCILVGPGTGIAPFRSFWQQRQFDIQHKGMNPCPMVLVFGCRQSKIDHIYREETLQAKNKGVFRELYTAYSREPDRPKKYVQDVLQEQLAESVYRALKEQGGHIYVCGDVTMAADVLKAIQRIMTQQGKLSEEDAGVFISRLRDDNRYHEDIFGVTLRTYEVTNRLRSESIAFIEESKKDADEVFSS

[4] = Selectivity for neuronal (nNOS) and endothelial Nitric Oxide Synthase(eNOS); design: reference not given here
Nitric oxide synthase 3 = biological target: T3, Nitric oxide synthase 3 (Bos taurus, UniProt P29473); test: Inhibition against endothelial Nitric Oxide Synthase(eNOS)
T3 sequence (P29473 whole entry): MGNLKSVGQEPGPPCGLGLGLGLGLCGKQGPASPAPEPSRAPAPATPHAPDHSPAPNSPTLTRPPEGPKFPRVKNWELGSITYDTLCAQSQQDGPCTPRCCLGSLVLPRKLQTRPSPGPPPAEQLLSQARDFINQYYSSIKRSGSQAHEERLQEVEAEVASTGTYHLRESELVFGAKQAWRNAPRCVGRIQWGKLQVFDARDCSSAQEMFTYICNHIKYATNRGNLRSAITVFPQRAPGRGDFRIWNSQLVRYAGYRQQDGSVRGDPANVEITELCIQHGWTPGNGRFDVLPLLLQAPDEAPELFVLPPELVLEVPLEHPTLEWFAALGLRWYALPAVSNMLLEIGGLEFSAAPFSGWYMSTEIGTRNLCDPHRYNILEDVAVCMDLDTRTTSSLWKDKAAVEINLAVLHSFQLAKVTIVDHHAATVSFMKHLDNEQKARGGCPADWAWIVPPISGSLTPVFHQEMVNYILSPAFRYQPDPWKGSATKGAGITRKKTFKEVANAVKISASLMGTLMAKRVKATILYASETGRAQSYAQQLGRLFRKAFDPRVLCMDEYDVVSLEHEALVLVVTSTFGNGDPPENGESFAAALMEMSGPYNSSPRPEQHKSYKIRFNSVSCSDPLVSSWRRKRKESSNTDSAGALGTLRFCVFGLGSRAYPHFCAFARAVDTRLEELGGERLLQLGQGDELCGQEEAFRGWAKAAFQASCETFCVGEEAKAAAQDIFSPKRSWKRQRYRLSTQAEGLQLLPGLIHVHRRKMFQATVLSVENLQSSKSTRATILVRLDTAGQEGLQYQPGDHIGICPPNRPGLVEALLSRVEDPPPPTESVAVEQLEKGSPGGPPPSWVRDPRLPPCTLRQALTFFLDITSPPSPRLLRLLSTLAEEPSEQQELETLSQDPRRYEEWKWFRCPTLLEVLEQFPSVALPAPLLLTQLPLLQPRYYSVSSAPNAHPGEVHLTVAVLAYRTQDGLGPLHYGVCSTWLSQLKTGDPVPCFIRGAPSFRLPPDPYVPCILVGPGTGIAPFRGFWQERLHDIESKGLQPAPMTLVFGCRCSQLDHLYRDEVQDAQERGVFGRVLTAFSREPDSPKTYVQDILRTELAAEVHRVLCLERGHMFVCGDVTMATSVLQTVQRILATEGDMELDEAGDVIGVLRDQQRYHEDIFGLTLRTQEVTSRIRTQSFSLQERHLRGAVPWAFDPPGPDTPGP

[5] = biological target: Nitric oxide synthase 1 (Rattus norvegicus) (UniProt P29476); test: (§1) Time dependent inhibition against neuronal Nitric Oxide Synthase(nNOS)
Nitric oxide synthase 1 (Rattus norvegicus), sequence (P29476 whole entry): as the sequence (P29476 whole entry) above

Nitric oxide synthase 1 [6] = biological target: T2, Nitric oxide synthase 1; test: as §1

Row | Compound | Ratio [1] | pKi [2] | pKi (Nitric oxide synthase 1 [3]) | Ratio [4] | pKi (Nitric oxide synthase 3) | K inact [5] | pKi (Nitric oxide synthase 1 [6])
1 | CCCC/N=C(\N)n1cccn1 | 1 | 4.85 | 4.85 | 1.8 | 4.60 | – | –
2 | N=C(NC1CC1)n1cccn1 | 1.6 | 4.10 | 4.30 | 2.4 | 3.92 | – | –
3 | N=C(Nc1cccc(CN)c1)c1cccs1 | – | 6.92 | – | – | 6.34 | – | –
4 | N=C(Nc1cccc(CN)c1)c1ccco1 | – | 6.80 | – | – | – | – | –
5 | NCCCC/N=C(\N)n1cccn1 | 8.3 | 4.30 | 5.22 | 77 | 3.34 | – | –
6 | CCCCC/N=C(\N)n1cccn1 | 0.8 | 4.30 | 4.22 | 14 | 3.15 | – | –
7 | N=C(N)n1cccn1 | 1.8 | 6.15 | 6.40 | 1.3 | 6.30 | – | –
8 | Cc1cnn(C(=N)N)c1 | 0.3 | 5.52 | 4.92 | 16 | 3.72 | – | –
9 | Cc1cc(C)n(C(=N)N)n1 | 2.1 | 3.12 | 3.46 | 4.3 | 2.82 | – | –
10 | CCCC/N=C(\N)NCCC | 1.1 | 3.11 | 3.15 | 0.9 | 3.19 | – | –

Further lines, results first:

Row | Ratio [1] | pKi [2] | pKi (Nitric oxide synthase 1 [3]) | Ratio [4] | pKi (Nitric oxide synthase 3) | K inact [5] | pKi (Nitric oxide synthase 1 [6]) | Compound
11 | 2.2 | 4.66 | 5.00 | 8 | 4.10 | – | – | N=C(NCC1CC1)n1cccn1
12 | 1.1 | 5.05 | 5.10 | 13 | 4.00 | – | – | Cc1ccn(C(=N)N)n1
13 | 3.3 | 3.82 | 4.35 | 4 | 3.74 | – | – | CC(C)C/N=C(\N)n1cccn1
14 | 1.7 | 5.30 | 5.52 | 3 | 5.05 | 0.024 min⁻¹ | 4.48 | CCC/N=C(\N)n1cccn1
15 | 6 | 4.92 | 5.70 | 100 | 3.70 | – | – | N=C(Nc1cccc(CN)c1)n1cccn1
